pIC50: −log10 of the molar value. Where a name gives a salt, the structure may show the parent alone. Read-outs that look alike come from different tables or passages of the source.
Tests used:
NK1 receptor [1] = target: T1, NK1 receptor (Cavia porcellus, UniProt P30547); test: Inhibition of SPOMe-induced plasma protein extravasation in the guinea pig bladder; format: in vivo
T1 construct: Guinea Pig Ileum; from tissue; host or cells: guinea pig ileum
Description: They antagonize the ability of a NK1 receptor selective agonist (SPOMe) to induce plasma protein extravasation in the guinea pig bladder. The protocol is similar to that described by Eglezos, et al., Eur. J. Pharmacol., 209: 277-279 (1991).

NK1 receptor [2] = target: T1, NK1 receptor; test: NK1 antagonist activity in an in vitro NK1 preparation (guinea pig ileum), antagonism of substance-P methylester; format: cell-based; details: vs substance-P methylester
Description: Therefore, it is expected to be useful in the therapeutic disorders when the attenuation of the NK1 receptor response is the appropriate form of intervention.

tachykinin NK1 receptor = target: T2, tachykinin NK1 receptor (Homo sapiens, UniProt P25103); test: NK1 binding in human IM9 lymphoma cells, displacement of [125I]Bolton Hunter Substance-P
T2 construct: tachykinin NK1 receptor sites in human IM9 lymphoma cells; endogenous in cells; host or cells: human IM9 lymphoma cells
T2 sequence (P25103 whole entry): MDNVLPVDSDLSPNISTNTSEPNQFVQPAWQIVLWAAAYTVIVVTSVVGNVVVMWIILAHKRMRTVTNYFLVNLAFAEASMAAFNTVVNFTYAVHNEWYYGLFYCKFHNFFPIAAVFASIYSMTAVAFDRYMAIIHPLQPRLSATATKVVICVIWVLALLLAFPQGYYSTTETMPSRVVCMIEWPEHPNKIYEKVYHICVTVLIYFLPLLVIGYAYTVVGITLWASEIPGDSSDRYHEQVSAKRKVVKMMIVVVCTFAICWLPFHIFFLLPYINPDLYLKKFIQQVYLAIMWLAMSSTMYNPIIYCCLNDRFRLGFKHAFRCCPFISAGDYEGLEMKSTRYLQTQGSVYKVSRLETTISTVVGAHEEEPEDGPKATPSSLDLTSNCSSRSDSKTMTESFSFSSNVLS

T1 sequence (P30547 whole entry): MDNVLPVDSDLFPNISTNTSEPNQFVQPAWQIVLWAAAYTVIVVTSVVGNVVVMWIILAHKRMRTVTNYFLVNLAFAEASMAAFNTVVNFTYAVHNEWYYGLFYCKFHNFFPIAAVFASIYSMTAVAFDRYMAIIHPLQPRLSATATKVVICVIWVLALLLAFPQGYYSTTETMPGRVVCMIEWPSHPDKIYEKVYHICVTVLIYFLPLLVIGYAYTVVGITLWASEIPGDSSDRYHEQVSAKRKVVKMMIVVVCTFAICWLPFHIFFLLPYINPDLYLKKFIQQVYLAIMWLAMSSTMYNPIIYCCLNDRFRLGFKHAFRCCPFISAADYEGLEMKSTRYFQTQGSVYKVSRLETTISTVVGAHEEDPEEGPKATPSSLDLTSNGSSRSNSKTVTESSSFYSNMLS

Row | SMILES | ED50 (NK1 receptor [1]; IV, read-out: ID50 (IV)) [mg/kg] | ED50 (NK1 receptor [1]; PO, read-out: ID50 (PO)) [mg/kg] | Kb (NK1 receptor [2]) [nM] | pIC50 (tachykinin NK1 receptor)
1 | CN(C)CC(=O)OC[C@H](NC(=O)[C@@](C)(Cc1c[nH]c2ccccc12)NC(=O)OCc1cc2ccccc2o1)c1ccccc1 [Example 9, Glycine, N,N-dimethyl-, 2-[[2-[[(2-benzofuranylmethoxy)carbonyl]amino]-3-(1H-indol-3-yl)-2-methyl-1-oxopropyl]amino]-2-phenylethyl ester, monohydrochloride, [R-(R*,R*)]-] | 0.16 | 4.4 | 6.2 | 7.92
2 | C[C@](Cc1c[nH]c2ccccc12)(NC(=O)OCc1cc2ccccc2o1)C(=O)N[C@@H](CN)c1ccccc1 [Example 8, Carbamic acid, [2-[(2-amino-1-phenylethyl)amino]-1-(1H-indol-3-ylmethyl)-1-methyl-2-oxoethyl]-, 2-benzofuranylmethyl ester [R-(R*,R*)]-] |  |  | 16 | 7.89
3 | C[C@](Cc1c[nH]c2ccccc12)(NC(=O)OCc1ccccc1F)C(=O)N[C@@H](CO)c1ccccc1 [Example 16, Carbamic acid, [2-[(2-hydroxy-1-phenylethyl)amino]-1-(1H-indol-3-ylmethyl)-1-methyl-2-oxoethyl]-, (2-fluorophenyl)methyl ester, [R-(R*,R*)]-] |  |  | 10.6 | 8.48
4 | C[C@](Cc1c[nH]c2ccccc12)(NC(=O)OCc1cc2ccccc2s1)C(=O)N[C@@H](CO)c1ccccc1 [Example 18, Carbamic acid, [2-[(2-hydroxy-1-phenylethyl)amino]-1-(1H-indol-3-ylmethyl)-1-methyl-2-oxoethyl]-, benzo[b]thien-2-ylmethyl ester, [R-(R*,R*)]-] |  |  | 6.3 | 8.05
5 | C[C@](Cc1c[nH]c2ccccc12)(NC(=O)OCc1cc2ccccc2o1)C(=O)N[C@@H](CO)c1ccccc1 [Example 6, Carbamic acid, [2-[(2-hydroxy-1-phenylethyl)amino]-1-(1H-indol-3-ylmethyl)-1-methyl-2-oxoethyl]-, 2-benzofuranylmethyl ester, [R-(R*,R*)]-] | 0.16 | 30 | 1.3 | 8.92
6 | C[C@](Cc1c[nH]c2ccccc12)(NC(=O)OCc1ccccc1)C(=O)N[C@@H](CO)c1ccccc1 [Example 15, Carbamic acid, [2-[(2-hydroxy-1-phenylethyl)amino]-1-(1H-indol-3-ylmethyl)-1-methyl-2-oxoethyl]-, phenylmethyl ester, [R-(R* R*)]-] |  |  |  | 7.24
7 | C[C@](Cc1c[nH]c2ccccc12)(NC(=O)OCc1cc(F)ccc1F)C(=O)N[C@@H](CO)c1ccccc1 [Example 17, Carbamic acid, [2-[(2-hydroxy-1-phenylethyl)amino]-1-(1H-indol-3-ylmethyl)-1-methyl-2-oxoethyl]-, (2,5-difluorophenyl)methyl ester, [R-(R*,R*)]] |  |  | 9.3 | 8.41
8 | CC(C)C[C@H](N)C(=O)OC[C@H](NC(=O)[C@@](C)(Cc1c[nH]c2ccccc12)NC(=O)OCc1cc2ccccc2o1)c1ccccc1 [Example 12, L-Leucine, 2-[[2-[[(2-benzofuranylmethoxy)carbonyl]amino]-3-(1H-indol-3-yl)-2-methyl-1-oxopropyl]amino]-2-phenylethyl ester, [R-(R*,R*)]-] |  |  | 22 | 7.80
9 | CN(C)CC(=O)NC[C@H](NC(=O)[C@@](C)(Cc1c[nH]c2ccccc12)NC(=O)OCc1cc2ccccc2o1)c1ccccc1 [Example 10, Carbamic acid, [2-[[(2-[[(dimethylamino)acetyl]amino]-1-phenylethyl]amino]-1-(1H-indol-3-ylmethyl)-1-methyl-2-oxoethyl]-, 2-benzofuranylmethyl ester, monohydrochloride, [R-(R*,R*)]-] |  |  |  | 7.08
